Experimental data reported in patent US8927717B1, “Thiochromeno[2,3-c]quinolin-12-one derivatives, preparation method and application thereof” (National Defense Medical Center, priority 2014, dated 2015).

Assays:
SF-295 = format: cell-based; details: CNS cancer; 10^−5 molar; 48 hours; SRB
KM12 = experiment: cells; format: cell-based; details: Colon cancer; 10^−5 molar; 48 hours; SRB
HCT-116 = format: cell-based; details: Colon cancer; 10^−5 molar; 48 hours; SRB
CCRF-CEM = format: cell-based; details: Leukemia; 10^−5 molar; 48 hours; SRB
SF-268 = format: cell-based; details: CNS cancer; 10^−5 molar; 48 hours; SRB
SF-539 = format: cell-based; details: CNS cancer; 10^−5 molar; 48 hours; SRB
SK-MEL-5 = format: cell-based; details: Melanoma; 10^−5 molar; 48 hours; SRB
MDA-MB-486 = format: cell-based; details: Breast cancer; 10^−5 molar; 48 hours; SRB
OVCAR-4 = format: cell-based; details: Ovarian cancer; 10^−5 molar; 48 hours; SRB
DU-145 = format: cell-based; details: Prostate cancer; 10^−5 molar; 48 hours; SRB
HOP-92 = format: cell-based; details: Non-small cell lung cancer; 10^−5 molar; 48 hours; SRB
NCI-H522 = format: cell-based; details: Non-small cell lung cancer; 10^−5 molar; 48 hours; SRB
786-0 = format: cell-based; details: Renal cancer; 10^−5 molar; 48 hours; SRB
TK-10 = format: cell-based; details: Renal cancer; 10^−5 molar; 48 hours; SRB
SN12C = format: cell-based; details: Renal cancer; 10^−5 molar; 48 hours; SRB
M14 = format: cell-based; details: Melanoma; 10^−5 molar; 48 hours; SRB
A549/ATCC = format: cell-based; details: Non-small cell lung cancer; 10^−5 molar; 48 hours; SRB
A498 = format: cell-based; details: Renal cancer; 10^−5 molar; 48 hours; SRB
OVCAR-8 = format: cell-based; details: Ovarian cancer; 10^−5 molar; 48 hours; SRB
HL-60(TB) = format: cell-based; details: Leukemia; 10^−5 molar; 48 hours; SRB
HS 578T = format: cell-based; details: Breast cancer; 10^−5 molar; 48 hours; SRB
HT29 = format: cell-based; details: Colon cancer; 10^−5 molar; 48 hours; SRB
60 cancer cell lines = experiment: NCI 60-cell screen, SRB, whole panel (mean, delta, range); format: cell-based; details: 10^−5 molar, 48 hours, SRB
MDA-MB-435 = format: cell-based; details: Melanoma; 10^−5 molar; 48 hours; SRB
COLO 205 = format: cell-based; details: Colon cancer; 10^−5 molar; 48 hours; SRB
RPMI-8226 = format: cell-based; details: Leukemia; 10^−5 molar; 48 hours; SRB
MDA-MB-231/ATCC = format: cell-based; details: Breast cancer; 10^−5 molar; 48 hours; SRB
ACHN = format: cell-based; details: Renal cancer; 10^−5 molar; 48 hours; SRB
MCF7 = format: cell-based; details: Breast cancer; 10^−5 molar; 48 hours; SRB
T-47D = format: cell-based; details: Breast cancer; 10^−5 molar; 48 hours; SRB
BT-549 = format: cell-based; details: Breast cancer; 10^−5 molar; 48 hours; SRB
IGROV1 = format: cell-based; details: Ovarian cancer; 10^−5 molar; 48 hours; SRB
SK-MEL-2 = format: cell-based; details: Melanoma; 10^−5 molar; 48 hours; SRB
UACC-62 = format: cell-based; details: Melanoma; 10^−5 molar; 48 hours; SRB
NCI-H226 = format: cell-based; details: Non-small cell lung cancer; 10^−5 molar; 48 hours; SRB
SK-OV-3 = format: cell-based; details: Ovarian cancer; 10^−5 molar; 48 hours; SRB
SNB-19 = format: cell-based; details: CNS cancer; 10^−5 molar; 48 hours; SRB
U251 = format: cell-based; details: CNS cancer; 10^−5 molar; 48 hours; SRB
OVCAR-3 = format: cell-based; details: Ovarian cancer; 10^−5 molar; 48 hours; SRB
NCI/ADR-RES = format: cell-based; details: Ovarian cancer; 10^−5 molar; 48 hours; SRB
SR = format: cell-based; details: Leukemia; 10^−5 molar; 48 hours; SRB
LOX IMVI = format: cell-based; details: Melanoma; 10^−5 molar; 48 hours; SRB
OVCAR-5 = format: cell-based; details: Ovarian cancer; 10^−5 molar; 48 hours; SRB
K-562 = format: cell-based; details: Leukemia; 10^−5 molar; 48 hours; SRB
NCI-H460 = format: cell-based; details: Non-small cell lung cancer; 10^−5 molar; 48 hours; SRB
MALME-3M = format: cell-based; details: Melanoma; 10^−5 molar; 48 hours; SRB
HCT-15 = format: cell-based; details: Colon cancer; 10^−5 molar; 48 hours; SRB
UO-31 = format: cell-based; details: Renal cancer; 10^−5 molar; 48 hours; SRB
NCI-H23 = format: cell-based; details: Non-small cell lung cancer; 10^−5 molar; 48 hours; SRB
HCC-2998 = format: cell-based; details: Colon cancer; 10^−5 molar; 48 hours; SRB
UACC-257 = format: cell-based; details: Melanoma; 10^−5 molar; 48 hours; SRB
CAKI-1 = format: cell-based; details: Renal cancer; 10^−5 molar; 48 hours; SRB
MOLT-4 = format: cell-based; details: Leukemia; 10^−5 molar; 48 hours; SRB
SNB-75 = format: cell-based; details: CNS cancer; 10^−5 molar; 48 hours; SRB
SK-MEL-28 = format: cell-based; details: Melanoma; 10^−5 molar; 48 hours; SRB
RXF 393 = format: cell-based; details: Renal cancer; 10^−5 molar; 48 hours; SRB
HOP-62 = format: cell-based; details: Non-small cell lung cancer; 10^−5 molar; 48 hours; SRB
PC-3 = format: cell-based; details: Prostate cancer; 10^−5 molar; 48 hours; SRB
SW-620 = format: cell-based; details: Colon cancer; 10^−5 molar; 48 hours; SRB

O=c1c2ccc(Cl)cc2sc2c(Cl)nc3ccccc3c12 [Compound 3, 6,9-Dichloro-12H-thiochromeno[2,3-c]quinolin-12-one]
Growth percent SF-295 (SF-295): 90.26%
Growth percent KM12 (KM12): 111.27%
Growth percent HCT-116 (HCT-116): 102.27%
Growth percent CCRF-CEM (CCRF-CEM): 93.12%
Growth percent SF-268 (SF-268): 109.60%
Growth percent SF-539 (SF-539): 89.02%
Growth percent SK-MEL-5 (SK-MEL-5): 97.42%
Growth percent MDA-MB-486 (MDA-MB-486): 98.57%
Growth percent OVCAR-4 (OVCAR-4): 87.91%
Growth percent DU-145 (DU-145): 114.27%
Growth percent HOP-92 (HOP-92): 90.83%
Growth percent NCI-H522 (NCI-H522): 96.81%
Growth percent 786-0 (786-0): 105.25%
Growth percent TK-10 (TK-10): 108.56%
Growth percent SN12C (SN12C): 95.92%
Growth percent M14 (M14): 106.18%
Growth percent A549/ATCC (A549/ATCC): 104.74%
Growth percent A498 (A498): 106.06%
Growth percent OVCAR-8 (OVCAR-8): 101.62%
Growth percent HL-60(TB) (HL-60(TB)): 99.34%
Growth percent HS 578T (HS 578T): 95.14%
Growth percent HT29 (HT29): 99.73%
Growth percent, Delta (60 cancer cell lines; delta over the cell panel): 32.05%
Growth percent, Mean (60 cancer cell lines; mean over the cell panel): 98.11%
Growth percent, Range (60 cancer cell lines; range over the cell panel): 57.22%
Growth percent MDA-MB-435 (MDA-MB-435): 100.64%
Growth percent COLO 205 (COLO 205): 112.15%
Growth percent RPMI-8226 (RPMI-8226): 100.19%
Growth percent MDA-MB-231/ATCC (MDA-MB-231/ATCC): 84.28%
Growth percent ACHN (ACHN): 86.84%
Growth percent MCF7 (Table 2: MCF) (MCF7): 82.58%
Growth percent T-47D (T-47D): 110.10%
Growth percent BT-549 (BT-549): 110.01%
Growth percent IGROV1 (IGROV1): 96.06%
Growth percent SK-MEL-2 (SK-MEL-2): 95.54%
Growth percent UACC-62 (UACC-62): 89.69%
Growth percent NCI-H226 (NCI-H226): 83.41%
Growth percent SK-OV-3 (SK-OV-3): 101.32%
Growth percent SNB-19 (SNB-19): 107.89%
Growth percent U251 (U251): 101.71%
Growth percent OVCAR-3 (OVCAR-3): 111.27%
Growth percent NCI/ADR-RES (NCI/ADR-RES): 102.80%
Growth percent SR (SR): 89.02%
Growth percent LOX IMVI (LOX IMVI): 90.53%
Growth percent OVCAR-5 (OVCAR-5): 100.07%
Growth percent K-562 (K-562): 101.04%
Growth percent NCI-H460 (NCI-H460): 103.14%
Growth percent MALME-3M (MALME-3M): 95.87%
Growth percent HCT-15 (HCT-15): 102.28%
Growth percent UO-31 (UO-31): 66.06%
melting point: 259 to 261 °C
Growth percent NCI-H23 (NCI-H23): 85.12%
Growth percent HCC-2998 (HCC-2998): 123.28%
Growth percent UACC-257 (UACC-257): 104.47%
Growth percent CAKI-1 (CAKI-1): 94.31%
Growth percent MOLT-4 (MOLT-4): 98.04%
Growth percent SNB-75 (SNB-75): 77.88%
Growth percent SK-MEL-28 (SK-MEL-28): 101.80%
Growth percent RXF 393 (RXF 393): 102.55%
Growth percent HOP-62 (HOP-62): 82.02%
Growth percent PC-3 (PC-3): 91.59%
Growth percent SW-620 (SW-620): 99.06%
